Test results taken from patent US12428415B2, “Matriptase 2 inhibitors and uses thereof” (Disc Medicine, Inc., priority 2018, dated 2025).

Biological target: T1, Human Recombinant Matriptase 2 (Homo sapiens, UniProt Q8IU80)
T1 construct: purchased Enzo Life Sciences (an in-house preparation was also used) ALX-201-752-1
T1 sequence (Q8IU80 1-811): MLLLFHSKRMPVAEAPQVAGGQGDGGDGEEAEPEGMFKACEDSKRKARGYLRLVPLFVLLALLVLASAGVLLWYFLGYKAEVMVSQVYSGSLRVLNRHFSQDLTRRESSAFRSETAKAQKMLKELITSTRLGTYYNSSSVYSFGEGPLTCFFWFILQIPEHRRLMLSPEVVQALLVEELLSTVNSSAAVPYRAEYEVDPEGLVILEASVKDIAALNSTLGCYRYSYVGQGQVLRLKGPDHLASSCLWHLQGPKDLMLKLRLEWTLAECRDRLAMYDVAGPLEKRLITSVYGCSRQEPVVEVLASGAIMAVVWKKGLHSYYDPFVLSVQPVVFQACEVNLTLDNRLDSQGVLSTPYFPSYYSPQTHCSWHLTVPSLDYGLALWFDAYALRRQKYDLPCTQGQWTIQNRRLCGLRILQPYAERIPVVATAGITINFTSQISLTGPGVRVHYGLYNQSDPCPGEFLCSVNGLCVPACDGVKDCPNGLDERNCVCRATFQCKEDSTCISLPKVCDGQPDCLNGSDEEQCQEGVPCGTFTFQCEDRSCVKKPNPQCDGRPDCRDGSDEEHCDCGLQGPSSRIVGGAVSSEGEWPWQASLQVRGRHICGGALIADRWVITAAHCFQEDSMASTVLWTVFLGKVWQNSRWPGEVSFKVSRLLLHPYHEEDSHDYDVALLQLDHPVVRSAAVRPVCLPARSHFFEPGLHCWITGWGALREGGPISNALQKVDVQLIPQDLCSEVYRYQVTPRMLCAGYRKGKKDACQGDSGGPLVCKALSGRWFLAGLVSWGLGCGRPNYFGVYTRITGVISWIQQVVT
Assay: Matriptase 2 fluorescence based inhibition assay, Method A (100 mM TRIS pH 9, 1 mg/mL BSA)
Type: biochemical
Details: 1 uM; Assay Used A; read-out: Mar-2 % inhibition at 1 uM
Summary of the method: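 At 25° C in 100 mM TRIS pH 9 with 1 mg/mL BSA and 1% DMSO, compounds were preincubated 30 min with 7 nM commercial or 15 nM in-house protein before adding 100 μM Boc-Gln-Ala-Arg-7-amido-4-methyl coumarin. Fluorescence at 360/480 nm after 60 min; single points at 1 and 10 μM, IC50 by variable-slope nonlinear regression.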

inhibition at 1 µM [%] | SMILES
0 to 25 | C=CCOc1cccc(NC(=O)c2cc3ccc(C(=N)N)cc3n2Cc2ccc(C(N)=O)cc2)c1 [Compound I-139]
0 to 25 | N=C(N)c1ccc2cc(C(=O)Nc3cccc(N4CC[C@@H](F)C4)c3)n(Cc3ccc(C(N)=O)cc3)c2c1 [Compound I-140]
25 to 50 | CC(C)OC(=O)NC(=N)c1ccc2cc(C(=O)Nc3cccc(N4CCCC4)c3)n(Cc3ccc(C(N)=O)cc3)c2c1 [Compound I-142]
0 to 25 | N=C(NC(=O)OCc1ccccc1)c1ccc2cc(C(=O)Nc3cccc(N4CCCC4)c3)n(Cc3ccc(C(N)=O)cc3)c2c1 [Compound I-143]
0 to 25 | N=C(N)c1ccc2cc(C(=O)Nc3cccc(-c4nccs4)c3)n(Cc3ccc(C(N)=O)cc3)c2c1 [Compound I-144]
0 to 25 | N=C(N)c1ccc2cc(C(=O)Nc3ccc(Br)cc3F)n(Cc3ccc(C(N)=O)cc3)c2c1 [Compound I-145]
25 to 50 | C#CCOc1cccc(NC(=O)c2cc3ccc(C(=N)N)cc3n2Cc2ccc(C(N)=O)cc2)c1 [Compound I-146]
0 to 25 | CC(C)COC(=O)NC(=N)c1ccc2cc(C(=O)Nc3cccc(N4CCCC4)c3)n(Cc3ccc(C(N)=O)cc3)c2c1 [Compound I-147]
0 to 25 | CS(=O)(=O)c1cccc(NC(=O)c2cc3ccc(C(=N)N)cc3n2Cc2ccc(C(N)=O)cc2)c1 [Compound I-150]
0 to 25 | N=C(N)c1ccc2cc(C(=O)Nc3cccc(-c4ccccc4)c3)n(Cc3ccc(C(N)=O)cc3)c2c1 [Compound I-151]
0 to 25 | N=C(N)c1ccc2cc(C(=O)Nc3cc(N4CCCC4)ccc3F)n(Cc3ccc(C(N)=O)cc3)c2c1 [Compound I-152]
25 to 50 | N=C(N)c1ccc2cc(C(=O)Nc3cccc(-n4ccccc4=O)c3)n(Cc3ccc(C(N)=O)cc3)c2c1 [Compound I-153]
0 to 25 | N=C(N)c1ccc2cc(C(=O)Nc3cccc(-n4cccc4)c3)n(Cc3ccc(C(N)=O)cc3)c2c1 [Compound I-154]
0 to 25 | N=C(N)c1ccc2cc(C(=O)Nc3ccc(F)c(N4CCCC4)c3)n(Cc3ccc(C(N)=O)cc3)c2c1 [Compound I-155]
0 to 25 | N=C(N)c1ccc2cc(C(=O)Nc3cccc(N4CCCC4=O)c3)n(Cc3ccc(C(N)=O)cc3)c2c1 [Compound I-156]
0 to 25 | CC(C)[C@@H](NC(=O)OC(C)(C)C)C(=O)O/N=C(\N)c1ccc2cc(C(=O)Nc3cccc(N4CCCC4)c3)n(Cc3ccc(C(N)=O)cc3)c2c1 [Compound I-157, (R)-tert-butyl (1-(((amino(1-(4-carbamoylbenzyl)-2-((3-(pyrrolidin-1-yl)phenyl)-carbamoyl)-1H-indol-6-yl)methylene)amino)oxy)-3-methyl-1-oxobutan-2-yl)carbamate]
0 to 25 | C[C@H](NC(=O)OC(C)(C)C)C(=O)O/N=C(\N)c1ccc2cc(C(=O)Nc3cccc(N4CCCC4)c3)n(Cc3ccc(C(N)=O)cc3)c2c1 [Compound I-158, (S)-tert-butyl (1-(((amino(1-(4-carbamoylbenzyl)-2-((3-(pyrrolidin-1-yl)phenyl)carbamoyl)-1H-indol-6-yl)methylene)amino)oxy)-1-oxopropan-2-yl)carbamate]
0 to 25 | CCCCCCOC(=O)NC(=N)c1ccc2cc(C(=O)Nc3cccc(N4CCCC4)c3)n(Cc3ccc(C(N)=O)cc3)c2c1 [Compound I-159]
0 to 25 | CCCCOC(=O)NC(=N)c1ccc2cc(C(=O)Nc3cccc(N4CCCC4)c3)n(Cc3ccc(C(N)=O)cc3)c2c1 [Compound I-160]
0 to 25 | CCCOC(=O)NC(=N)c1ccc2cc(C(=O)Nc3cccc(N4CCCC4)c3)n(Cc3ccc(C(N)=O)cc3)c2c1 [Compound I-162]
0 to 25 | N=C(N)c1ccc2cc(C(=O)Nc3cccc(-c4cnco4)c3)n(Cc3ccc(C(N)=O)cc3)c2c1 [Compound I-163]
0 to 25 | N=C(NC(=O)OC1CCCCC1)c1ccc2cc(C(=O)Nc3cccc(N4CCCC4)c3)n(Cc3ccc(C(N)=O)cc3)c2c1 [Compound I-164]

The remaining lines, values behind:

SMILES | inhibition at 1 µM [%]
C[C@@H](NC(=O)c1cc2ccc(C(=N)N)cc2n1Cc1ccc(C(N)=O)cc1)c1ccc(F)c(Cl)c1 [Compound I-113] | 0 to 25
N=C(N)c1ccc2cc(C(=O)Nc3ccc(CN4CCCC4)cc3)n(Cc3ccc(C(N)=O)cc3)c2c1 [Compound I-114] | 25 to 50
N=C(N)c1ccc2cc(C(=O)Nc3cc(F)ccc3F)n(Cc3ccc(C(N)=O)cc3)c2c1 [Compound I-115] | 0 to 25
NC(=O)c1ccc(Cn2c(C(=O)Nc3cccc(N4CCCC4)c3)cc3ccc(C(N)=O)cc32)cc1 [Compound I-117, 1-(4-Carbamoylbenzyl)-N^2-(3-(pyrrolidin-1-yl)phenyl)-1H-indole-2,6-dicarboxamide] | 0 to 25
COC(=O)NC(=N)c1ccc2cc(C(=O)Nc3ccc(N4CCCC4)cc3)n(Cc3ccc(C(N)=O)cc3)c2c1 [Compound I-118, Methyl ((1-(4-carbamoylbenzyl)-2-((4-(pyrrolidin-1-yl)phenyl)carbamoyl)-1H-indol-6-yl)(imino)methyl)carbamate] | 0 to 25
CCOC(=O)NC(=N)c1ccc2cc(C(=O)Nc3ccc(N4CCCC4)cc3)n(Cc3ccc(C(N)=O)cc3)c2c1 [Compound I-119] | 0 to 25
CCOC(=O)NC(=N)c1ccc2cc(C(=O)Nc3cccc(N4CCCC4)c3)n(Cc3ccc(C(N)=O)cc3)c2c1 [Compound I-120] | 0 to 25
N=C(N)c1ccc2cc(C(=O)Nc3cccc(OCC4CC4)c3)n(Cc3ccc(C(N)=O)cc3)c2c1 [Compound I-121] | 0 to 25
N=C(N)c1ccc2cc(C(=O)Nc3cccc(N4CC[C@H](F)C4)c3)n(Cc3ccc(C(N)=O)cc3)c2c1 [Compound I-122] | 0 to 25
CO[C@H]1CCN(c2cccc(NC(=O)c3cc4ccc(C(=N)N)cc4n3Cc3ccc(C(N)=O)cc3)c2)C1 [Compound I-123] | 0 to 25
C[C@H]1CCCN1c1cccc(NC(=O)c2cc3ccc(C(=N)N)cc3n2Cc2ccc(C(N)=O)cc2)c1 [Compound I-124] | 0 to 25
CC(C)(O)[C@@H](NC(=O)c1cc2ccc(C(=N)N)cc2n1Cc1ccc(C(N)=O)cc1)c1ccccc1 [Compound I-125] | 25 to 50
N=C(N)c1ccc2cc(C(=O)Nc3cc(F)cc(Br)c3)n(Cc3ccc(C(N)=O)cc3)c2c1 [Compound I-126] | 0 to 25
N=C(N)c1ccc2cc(C(=O)Nc3ccc(N4CC[C@@H](F)C4)cc3)n(Cc3ccc(C(N)=O)cc3)c2c1 [Compound I-127] | 25 to 50
N=C(N)c1ccc2cc(C(=O)Nc3cccc(N4CC[C@H](O)C4)c3)n(Cc3ccc(C(N)=O)cc3)c2c1 [Compound I-128] | 0 to 25
N=C(N)c1ccc2cc(C(=O)Nc3cccc(N4CCOCC4)c3)n(Cc3ccc(C(N)=O)cc3)c2c1 [Compound I-129] | 0 to 25
N=C(N)c1ccc2cc(C(=O)Nc3cc(F)c(F)c(Br)c3)n(Cc3ccc(C(N)=O)cc3)c2c1 [Compound I-130] | 0 to 25
N=C(N)c1ccc2cc(C(=O)Nc3cccc([N+](=O)[O-])c3)n(Cc3ccc(C(N)=O)cc3)c2c1 [Compound I-131] | 0 to 25
N=C(N)c1ccc2cc(C(=O)Nc3cccc(-n4cccn4)c3)n(Cc3ccc(C(N)=O)cc3)c2c1 [Compound I-132] | 25 to 50
N=C(N)c1ccc2cc(C(=O)Nc3cccc(N4CCSCC4)c3)n(Cc3ccc(C(N)=O)cc3)c2c1 [Compound I-133] | 0 to 25
N=C(N)c1ccc2cc(C(=O)Nc3cccc(-c4ccccn4)c3)n(Cc3ccc(C(N)=O)cc3)c2c1 [Compound I-134] | 0 to 25
CN(C)CC(=O)O/N=C(\N)c1ccc2cc(C(=O)Nc3cccc(N4CCCC4)c3)n(Cc3ccc(C(N)=O)cc3)c2c1 [Compound I-135, 1-(4-Carbamoylbenzyl)-6-(N′-(2-(dimethylamino)acetoxy)carbamimidoyl)-N-(3-(pyrrolidin-1-yl)phenyl)-1H-indole-2-carboxamide] | 0 to 25
NC(=O)c1ccc(Cn2c(C(=O)Nc3cccc(-c4ccccn4)c3)cc3ccc(C(N)=O)cc32)cc1 [Compound I-136, 1-(4-Carbamoylbenzyl)-N^2-(3-(pyridin-2-yl)phenyl)-1H-indole-2,6-dicarboxamide] | 0 to 25
N=C(N)c1ccc2cc(C(=O)Nc3cccc(-c4ncc[nH]4)c3)n(Cc3ccc(C(N)=O)cc3)c2c1 [Compound I-137] | 25 to 50
C#Cc1cccc(NC(=O)c2cc3ccc(C(=N)N)cc3n2Cc2ccc(C(N)=O)cc2)c1 [Compound I-138] | 0 to 25
N=C(NC(=O)Oc1ccccc1)c1ccc2cc(C(=O)Nc3cccc(N4CCCC4)c3)n(Cc3ccc(C(N)=O)cc3)c2c1 [Compound I-148] | 0 to 25
